Common to all, as to test: relative viability (nuclei count vs DMSO), 5 days (fraction); higher = more cells survive
Compound in the assay “Bortezomib + Phenformin”: CC(C)C[C@H](NC(=O)[C@H](Cc1ccccc1)NC(=O)c1cnccn1)B(O)O [Bortezomib] + N=C(N)NC(=N)NCCc1ccccc1 [Phenformin] (partner 250 µM)
The procedure, abridged:
(§1)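 Relative viability equals treated-well nuclei counts divided by vehicle-well nuclei counts. Counts came from 4× images of lung cancer cell lines grown in 1536-well plates for 5 days after pin-tool dosing on the day after seeding. Dosing used one drug alone or a fixed anchor-drug dose plus five library-drug doses (not always all listed) in √10 steps, and values are medians of duplicate plates.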

Compound in assay [1]: CC1=CC(=NN1)NC2=CC(=NC(=N2)/C=C/C3=CC=CC=C3)N4CCN(CC4)C + Nc1ncn([C@H]2C[C@H](O)[C@@H](CO)O2)c(=O)n1 [Decitabine] (partner 2 µM)
The procedure, abridged: as §1

Compound in the assay “Bortezomib + Olaparib”: CC(C)C[C@H](NC(=O)[C@H](Cc1ccccc1)NC(=O)c1cnccn1)B(O)O [Bortezomib] + O=C(c1cc(Cc2n[nH]c(=O)c3ccccc23)ccc1F)N1CCN(C(=O)C2CC2)CC1 [Olaparib] (partner 8 µM)
The procedure, abridged: as §1

Compound in assay [2]: CC1=CC(=NN1)NC2=CC(=NC(=N2)/C=C/C3=CC=CC=C3)N4CCN(CC4)C + C[C@]1(O)C[C@@H](c2nc(-c3ccc4ccc(-c5ccccc5)nc4c3)c3c(N)nccn32)C1 [Linsitinib] (partner 1 µM)
The procedure, abridged:
as §1

For NCI-H650, the relative viability worked out at 0.431 in the assay with Bortezomib + Phenformin (first compound 0.000632 µM); 0.461 with Bortezomib + Phenformin (first compound 0.002 µM); 0.38 with Bortezomib + Phenformin (first compound 0.006325 µM); 0.203 with Bortezomib + Phenformin (first compound 0.02 µM); 0.314 in assay [1] (first compound 0.08 µM); 0.318 in assay [1] (first compound 0.253 µM). Moreover, the relative viability worked out at 0.287 in assay [1] (first compound 0.8 µM); 0.246 in assay [1] (first compound 2.53 µM); 0.157 in assay [1] (first compound 8 µM); 0.372 with Bortezomib + Olaparib (first compound 0.0002 µM); 0.435 with Bortezomib + Olaparib (first compound 0.000632 µM); 0.398 with Bortezomib + Olaparib (first compound 0.002 µM). Moreover, the relative viability turned out to be 0.165 with Bortezomib + Olaparib (first compound 0.006325 µM); 0.102 with Bortezomib + Olaparib (first compound 0.02 µM); 0.674 in assay [2] (first compound 0.08 µM); 1.06 in assay [2] (first compound 0.253 µM); 0.777 in assay [2] (first compound 0.8 µM); 0.278 in assay [2] (first compound 2.53 µM). The relative viability in assay [2] (first compound 8 µM) was determined as 0.202.

(Values after the supplement of paper PMC10307832.)
